{"source": "paper PMC8333425", "about": "“Discovery of a dual Ras and ARF6 inhibitor from a GPCR endocytosis screen” (Nature Communications, 2021)", "key": {"Ras": {"test_system": "Ras", "test": "GST-Raf1-RBD pull-down of EGFR-mediated Ras activation", "format": "cell-based, human", "conditions": "for Ras-GTP over total Ras, GST-Raf1-RBD pull-down, EGFR: Comp 21 50 μM, individual experiments", "text": "Since 21 inhibited both ERK1/2 and Akt activation by GPCRs and EGFR, we looked at a common target involved in both pathways. The small G protein Ras is an upstream regulator of both Ras-RAF-MEK-ERK and PI3K/Akt signaling pathways[35],[36]. Therefore, we explored 21’s ability to inhibit Ras activity using GST-Raf1-Ras-binding domain (RBD) in a pull-down assay. A reduction of 60% in GTP-bound Ras was noticed in pulled-down from cells treated with 21 and stimulated with either AT1R or EGFR, as compared to vehicle-treated cells (Fig. 4a, b). Complementary to this in vitro assay, we generated a Ras BRET assay, using the Raf-Ras binding domain tagged with RlucII (Raf1-RBD-RlucII) and the rGFP at the PM (rGFP-CAAX) (Supplementary Fig. 3c), to assess 21’s effects on Ras activation kinetics. […] Overexpression of either the active form of Ras (G12V) or SOS1 anchored at the PM (SOS-CAAX) produced a robust basal BRET signal that was no longer modulated by receptor activation (Supplementary Fig. 3d). […] 21’s potency to inhibit ARF6 and Ras is also consistent with its relative efficacy for inhibiting AT1R internalization and MAPK, respectively, when used at 50 μM (e.g., around 7 and 70 times the respective IC50s) (Figs. 2e and 3a). We also assessed if 21 was acting as a pan small G protein inhibitor by testing its effect on Rho and Rac/Cdc42. […] To assess Rac/Cdc42 activity, we generated a Rac/Cdc42 BRET sensor that consisted of the PAK-CRIB domain fused to RlucII (PAK-CRIB-RlucII) and the rGFP-CAAX (Supplementary Fig. 3e). PAK-CRIB, which binds to active Rac/Cdc42, was recruited to the PM upon AngII stimulation of cells and generated a robust BRET signal, which was blocked by the overexpression of the DN Rac1-T17N. Overexpression of the constitutively active Rac1-Q61L increased the basal BRET, which was no longer modulated by AT1R stimulation (Supplementary Fig. 3f).\nActivation of ARF1, ARF6, Ras, and Rho were assessed by using GST pull-down assays. […] ImageLab 5.2 software was used to quantify the digital blots as fold of the amount of pulled down protein over total protein. […]"}, "[1]": {"test_system": "ERK1/2 activation by AT1R", "test": "Western blot of AT1R-mediated ERK1/2 activation in Gαq/11 KO cells (with or without β-arrestin2)", "format": "cell-based, human", "conditions": "for ERK1/2 activation by AT1R in cells lacking Gαq/11, supplemented or not with β-arrestin: 50 μM", "procedure": "HEK293SL cells (10^5 cells per well) were seeded in a poly-L-lysine-coated six-well plate and transiently transfected with 3 μg Flag-AT1R, HA-B2R or HA-β2AR and/or 500 ng Flag-MEK1-WT, Flag-MEK1-DD, Flag-BRAF-WT, Flag-BRAF-V600E, Flag-K-Ras-WT, Flag-K-Ras-G12V, HA-ARF6-WT, or HA-ARF6-T27N. Gαq/11 KO and βarr1/2 KO cells were seeded onto 100 mm dishes at a density of 10^6 cells per dish. Next day, cells were transfected with 3 μg AT1R alone or along with 500 ng of β-arrestin2 using PEI. After 18 h of transfection, cells were detached and re-seeded onto poly-L-lysine coated 12-well plates (~1.5–2 × 10^5cells/well) for subsequent experiments. Forty-eight hours post transfection, in a 37 °C water bath, cells were serum-starved for 30 min, pretreated with DMSO (0.1%) or compound 21/Rasarfin (50 µM or at indicated concentrations) for 30 min, then stimulated or not with the indicated ligand [AngII (1 µM), BK (1 µM), Iso (10 µM) or EGF (100 ng/ml)] at indicated times. Cells were put on ice, washed with PBS and solubilized in 2x laemmli buffer (250 mM Tris–HCl pH 6.8, 2% SDS (w/v), 10% glycerol (v/v), 0.01% bromophenol blue (w/v) and 5% β-mercaptoethanol (v/v)) by heating at 65 °C for 15 min. Lysates were resolved on 10 or 14% SDS-PAGE, transferred to nitrocellulose membranes and immunoblotted for p-ERK1/2, ERK1/2, p-Akt, Akt, HA, Myc, β-actin or FLAG. ImageLab 5.2 software was used to quantify the digital blots as fold of the phosphorylated protein over total protein, which were then normalized as indicated in the figure legends. Uncropped immunoblots are provided in the Source Data file."}, "[2]": {"conditions": "Gq/11 KO cells + barr2, Time 0 min"}}, "note": "“And” between values parts separate entries of the source, which are not always exact repeats. Equal entries are not always repeated."}
{"smiles": "CC(C)C(=O)N1CCN(c2ccc(NC(=O)c3cc4ccccc4o3)cc2Cl)CC1", "note": "[Compound 21]", "values": [{"measurement": "reduction in GTP-bound Ras, EGFR-stimulated cells (pull-down)", "setting": "Ras; 50 μM, compared to vehicle-treated cells", "result": 60, "unit": "%"}, {"measurement": "Ras-GTP over total Ras, GST-Raf1-RBD pull-down, EGFR", "setting": "Ras; Ctrl (no EGF)", "result": "0.1945 and 0.09698 and 0.1503"}, {"measurement": "Ras-GTP over total Ras, GST-Raf1-RBD pull-down, EGFR", "setting": "Ras; EGF", "result": "1.319 and 0.978 and 0.8185"}, {"measurement": "ERK1/2 activation by AT1R in cells lacking Gαq/11, supplemented or not with β-arrestin", "setting": "[1]", "result": "efficiently inhibited ERK1/2 activation"}, {"measurement": "ERK1/2 activation by AT1R in cells lacking Gαq/11, supplemented or not with β-arrestin", "setting": "[1]; listed as Rasarfin", "result": "totally blocked"}, {"measurement": "ERK1/2 activation relative to time 0 (S_Fig.4a)", "setting": "[1]; [2]", "result": 1}, {"measurement": "Predicted (LS) mean diff. DMSO - Comp 21 (Bonferroni's multiple comparisons test)", "setting": "[1]; [2]", "result": 0}, {"measurement": "Predicted (LS) mean diff. DMSO - Comp 21 (Bonferroni's multiple comparisons test)", "setting": "[1]; Gq/11 KO cells + barr2, Time 5 min", "result": 5.112}, {"measurement": "Predicted (LS) mean diff. DMSO - Comp 21 (Bonferroni's multiple comparisons test)", "setting": "[1]; Gq/11 KO cells + barr2, Time 20 min", "result": 2.869}, {"measurement": "ERK1/2 activation relative to time 0 (S_Fig.4a)", "setting": "[1]; Gq/11 KO cells, Time 0 min", "result": 1}, {"measurement": "Mean Diff. DMSO - Comp 21 (Bonferroni's multiple comparisons test)", "setting": "[1]; Gq/11 KO cells, Time 0 min", "result": 0}, {"measurement": "Mean Diff. DMSO - Comp 21 (Bonferroni's multiple comparisons test)", "setting": "[1]; Gq/11 KO cells, Time 5 min", "result": 14.92}, {"measurement": "ERK1/2 activation relative to time 0 (S_Fig.4a)", "setting": "[1]; Gq/11 KO cells, Time 5 min, listed as Comp 21", "result": "0.6393 and 0.9475 and 0.8926 and 0.5297"}, {"measurement": "Mean Diff. DMSO - Comp 21 (Bonferroni's multiple comparisons test)", "setting": "[1]; Gq/11 KO cells, Time 20 min", "result": 7.116}]}
